Results: ChEMBL document CHEMBL2150908, “Discovery of 2-Alkyl-1-arylsulfonylprolinamides as 11β-Hydroxysteroid Dehydrogenase Type 1 Inhibitors” (ACS Med Chem Lett, 2012)

Columns and labels:
[1] = Intrinsic clearance in human liver microsomes assessed as per mg of protein; format: ADME, Microsome; details: read-out: CLH
[2] = molecular target: 11-beta-hydroxysteroid dehydrogenase 1 (Mus musculus) (UniProt P50172); test: Inhibition of mouse 11betaHSD1 at 100 nM by scintillation proximity assay
[3] = molecular target: T1, 11-beta-hydroxysteroid dehydrogenase 1 (Mus musculus, UniProt P50172); test: Inhibition of mouse 11betaHSD1 in 3T3L1 cells assessed as conversion of [1,2-(N)3H]-cortisone to cortisol after 1 hr by liquid scintillation counter; format: cell-based, 3T3-L1
Mus musculus [4] = species: Mus musculus; test: Clearance in BALB/c mouse; format: ADME, organism-based; details: in vivo
[5] = AUC (0 to t) in BALB/c mouse at 5 mg/kg, ip; format: ADME, organism-based; design: dose 5 mg/kg, route intraperitoneal; details: plasma
[6] = Bioavailability in BALB/c mouse at 5 mg/kg, ip; format: ADME, organism-based; details: in vivo
[7] = Oral bioavailability in BALB/c mouse at 5 mg/kg; format: ADME, organism-based; details: in vivo
[8] = Half life in BALB/c mouse at 1 mg/kg, iv; format: ADME, organism-based; design: dose 1 mg/kg, route intravenous; details: in vivo
[9] = Volume of distribution at steady state in BALB/c mouse; format: ADME, organism-based; details: in vivo, read-out: Vdss
[10] = molecular target: T2, 11-beta-hydroxysteroid dehydrogenase type 2 (Homo sapiens, UniProt P80365); test: Inhibition of human 11betaHSD2
T2 sequence (P80365 whole entry): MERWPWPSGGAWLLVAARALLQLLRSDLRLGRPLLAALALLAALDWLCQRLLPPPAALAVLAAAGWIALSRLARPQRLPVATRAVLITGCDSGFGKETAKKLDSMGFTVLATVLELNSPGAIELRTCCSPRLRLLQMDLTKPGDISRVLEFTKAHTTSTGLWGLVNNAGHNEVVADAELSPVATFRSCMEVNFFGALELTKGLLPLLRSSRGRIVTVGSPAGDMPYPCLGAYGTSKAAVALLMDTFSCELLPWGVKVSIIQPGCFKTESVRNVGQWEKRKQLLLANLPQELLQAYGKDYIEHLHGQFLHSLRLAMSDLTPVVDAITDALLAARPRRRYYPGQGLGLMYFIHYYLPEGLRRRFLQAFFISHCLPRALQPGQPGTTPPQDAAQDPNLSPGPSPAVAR

[11] = molecular target: T1, 11-beta-hydroxysteroid dehydrogenase 1; test: Inhibition of mouse 11betaHSD1 by scintillation proximity assay
[12] = molecular target: T3, 11-beta-hydroxysteroid dehydrogenase 1 (Homo sapiens, UniProt P28845); test: Inhibition of human 11betaHSD1 by scintillation proximity assay
Target sequence in this assay (P28845 whole entry): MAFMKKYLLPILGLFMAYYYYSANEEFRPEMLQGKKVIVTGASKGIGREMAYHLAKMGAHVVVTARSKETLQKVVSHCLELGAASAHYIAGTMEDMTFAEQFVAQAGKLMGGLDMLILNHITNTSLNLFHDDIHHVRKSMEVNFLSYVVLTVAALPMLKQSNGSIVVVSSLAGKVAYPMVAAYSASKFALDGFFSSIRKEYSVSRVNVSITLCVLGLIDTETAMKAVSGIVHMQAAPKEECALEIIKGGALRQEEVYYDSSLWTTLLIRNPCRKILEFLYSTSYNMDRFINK

[13] = molecular target: T3, 11-beta-hydroxysteroid dehydrogenase 1; test: Inhibition of human 11betaHSD1 at 100 nM by scintillation proximity assay
Target sequence in this assay (P28845 whole entry, looked up): as the sequence (P28845 whole entry) above

Mus musculus [14] = test: Inhibition of 11betaHSD1 in BALB/c mouse using prednisone as substrate assessed as reduction of prednisolone production at 30 mg/kg, ip administered 1 hr prior to substrate addition measured after 2 mins post substrate addition by LC/MS/MS analysis; format: functional; details: route intraperitoneal
Mus musculus [15] = test: Inhibition of 11betaHSD1 in BALB/c mouse using prednisone as substrate assessed as reduction of prednisolone production at 10 mg/kg, ip administered 1 hr prior to substrate addition measured after 2 mins post substrate addition by LC/MS/MS analysis; format: functional; details: route intraperitoneal
Mus musculus [16] = test: Inhibition of 11betaHSD1 in BALB/c mouse using prednisone as substrate assessed as reduction of prednisolone production at 3 mg/kg, ip administered 1 hr prior to substrate addition measured after 2 mins post substrate addition by LC/MS/MS analysis; format: functional; details: route intraperitoneal
Mus musculus [17] = test: Inhibition of 11betaHSD1 in ip dosed BALB/c mouse using prednisone as substrate assessed as reduction of prednisolone production administered 1 hr prior to substrate addition measured after 2 mins post substrate addition by LC/MS/MS analysis; format: functional, organism-based
Mus musculus [18] = test: Inhibition of 11betaHSD1 in BALB/c mouse using prednisone as substrate assessed as remaining prednisolone level at 3 mg/kg, ip administered 1 hr prior to substrate addition measured after 2 mins post substrate addition by LC/MS/MS analysis; format: functional; details: route intraperitoneal
Mus musculus [19] = test: Inhibition of 11betaHSD1 in BALB/c mouse using prednisone as substrate assessed as remaining prednisolone level at 30 mg/kg, ip administered 1 hr prior to substrate addition measured after 2 mins post substrate addition by LC/MS/MS analysis; format: functional; details: route intraperitoneal
[20] = Plasma concentration in BALB/c mouse at 3 mg/kg, ip administered 1 hr prior to prednisone addition measured after 2 mins post prednisone addition by LC/MS/MS analysis; format: ADME, organism-based; design: dose 3 mg/kg, route intraperitoneal
[21] = Plasma concentration in BALB/c mouse at 10 mg/kg, ip administered 1 hr prior to prednisone addition measured after 2 mins post prednisone addition by LC/MS/MS analysis; format: ADME, organism-based; design: dose 10 mg/kg, route intraperitoneal
[22] = Plasma concentration in BALB/c mouse at 30 mg/kg, ip administered 1 hr prior to prednisone addition measured after 2 mins post prednisone addition by LC/MS/MS analysis; format: ADME, organism-based; design: dose 30 mg/kg, route intraperitoneal
Mus musculus [23] = test: Inhibition of 11betaHSD1 in BALB/c mouse using prednisone as substrate assessed as remaining prednisolone level at 10 mg/kg, ip administered 1 hr prior to substrate addition measured after 2 mins post substrate addition by LC/MS/MS analysis; format: functional; details: route intraperitoneal

T1 sequence (P50172 whole entry): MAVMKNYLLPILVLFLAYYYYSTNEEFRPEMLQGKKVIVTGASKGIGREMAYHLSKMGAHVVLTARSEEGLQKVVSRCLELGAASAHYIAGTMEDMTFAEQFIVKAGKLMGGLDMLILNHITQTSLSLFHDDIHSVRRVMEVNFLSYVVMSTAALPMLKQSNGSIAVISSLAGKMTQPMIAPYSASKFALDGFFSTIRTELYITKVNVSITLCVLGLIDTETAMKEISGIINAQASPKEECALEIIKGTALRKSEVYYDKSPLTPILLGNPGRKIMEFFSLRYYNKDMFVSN
Sequence of 11-beta-hydroxysteroid dehydrogenase 1 (Mus musculus) (P50172 whole entry, looked up): as the sequence (P50172 whole entry) above

SMILES | microsomal CLint [1] [µL/min/mg] | inhibition [2] [%] | IC50 [11] [nM] | other results
C[C@]1(C(=O)N[C@H]2C3CC4CC2C[C@](O)(C4)C3)CCCN1S(=O)(=O)c1cccs1 | 15 | – | 112 | –
CN(C)c1cccc2c(S(=O)(=O)N3CCC[C@]3(C)C(=O)N[C@H]3C4CC5CC3C[C@](O)(C5)C4)cccc12 | 148 | 31 | – | –
C=CC[C@]1(C(=O)N[C@H]2C3CC4CC2C[C@](O)(C4)C3)CCCN1S(=O)(=O)c1cccc2cccnc12 | – | – | 87 | inhibition [13]: 33%
CC(O)(c1ccc(S(=O)(=O)N2CCC[C@]2(C)C(=O)N[C@H]2C3CC4CC2C[C@](O)(C4)C3)cc1)C(F)(F)F (stereo not given in full) | 64 | 26 | – | –
C[C@]1(C(=O)N[C@H]2C3CC4CC2C[C@](O)(C4)C3)CCCN1S(=O)(=O)c1cccc2cccnc12 | 51 | – | 11 | IC50 [3]: 11 nM; clearance (Mus musculus [4]): 60 mL/min/kg; inhibition in vivo at 30 mg/kg (Mus musculus [14]): 89%; inhibition in vivo at 10 mg/kg (Mus musculus [15]): 71%; AUC(0-t) [5]: 939 ng·h/mL; bioavailability [6]: 33%; bioavailability [7]: 3%; inhibition in vivo at 3 mg/kg (Mus musculus [16]): 34%; inhibition (Mus musculus [17]): Dose-dependent effect; half-life [8]: 14 min; Vd [9]: 0.63 L/kg; IC50 [10]: > 10000 nM; IC50 [12]: 7.7 nM; Activity (Mus musculus [18]): 66%; Activity (Mus musculus [19]): 11%; concentration at 2 min [20]: 28 ng/mL; concentration at 2 min [21]: 80 ng/mL; concentration at 62 min [22]: 94 ng/mL; Activity (Mus musculus [23]): 29%
C[C@]1(C(=O)N[C@H]2C3CC4CC2C[C@](O)(C4)C3)CCCN1S(=O)(=O)c1ccc(-c2ccccc2)cc1 | 87 | 37 | – | –
C[C@]1(C(=O)N[C@H]2C3CC4CC2C[C@](O)(C4)C3)CCCN1S(=O)(=O)c1ccccc1C#N | – | – | 125 | –
CC[C@]1(C(=O)N[C@H]2C3CC4CC2C[C@](O)(C4)C3)CCCN1S(=O)(=O)c1cccc2cccnc12 | – | – | 164 | –
C[C@]1(C(=O)N[C@H]2C3CC4CC2C[C@](O)(C4)C3)CCCN1S(=O)(=O)c1ccc(Br)s1 | 57 | – | 97 | –
COc1ccc(S(=O)(=O)N2CCC[C@]2(C)C(=O)N[C@H]2C3CC4CC2C[C@](O)(C4)C3)cc1OC | 132 | 3 | – | –
C[C@]1(C(=O)N[C@H]2C3CC4CC2C[C@](O)(C4)C3)CCCN1S(=O)(=O)c1cccnc1 | 55 | 17 | – | –
CC(=O)c1ccc(S(=O)(=O)N2CCC[C@]2(C)C(=O)N[C@H]2C3CC4CC2C[C@](O)(C4)C3)cc1 | 12 | 16 | – | –
CC(O)(c1ccc(S(=O)(=O)N2CCC[C@]2(C)C(=O)N[C@H]2C3CC4CC2C[C@](C#N)(C4)C3)cc1)C(F)(F)F (stereo not given in full) | – | 9.5 | – | –
CC(C)(C)c1ccc(S(=O)(=O)N2CCC[C@]2(C)C(=O)N[C@H]2C3CC4CC2C[C@](O)(C4)C3)cc1 | – | 12 | – | –
COC(=O)[C@]12CC3CC(C1)[C@@H](NC(=O)[C@@]1(C)CCCN1S(=O)(=O)c1ccc(C(C)(O)C(F)(F)F)cc1)C(C3)C2 (stereo not given in full) | – | 14 | – | –
C[C@]1(C(=O)N[C@H]2C3CC4CC2C[C@](O)(C4)C3)CCCN1S(=O)(=O)c1ccc(C#N)cc1Cl | 134 | – | 146 | –

Second part, led by results:

microsomal CLint [1] [µL/min/mg] | inhibition [2] [%] | IC50 [11] [nM] | SMILES | other results
140 | 9.2 | – | Cc1c(Cl)cccc1S(=O)(=O)N1CCC[C@]1(C)C(=O)NC1CCCCC1 | –
106 | – | 1.3 | Cc1c(Cl)cccc1S(=O)(=O)N1CCC[C@]1(C)C(=O)N[C@H]1C2CC3CC1C[C@](O)(C3)C2 | IC50 [3]: 121 nM; clearance (Mus musculus [4]): 90 mL/min/kg; AUC(0-t) [5]: 597 ng·h/mL; bioavailability [6]: 63%; bioavailability [7]: 9.1%; half-life [8]: 14 min; Vd [9]: 0.51 L/kg; IC50 [10]: 2200 nM; IC50 [12]: 0.1 nM
– | 13 | – | Cc1c(Cl)cccc1S(=O)(=O)N1CCC[C@]1(C)C(=O)N[C@H]1CC[C@H](O)CC1 | –
– | – | 63 | Cc1c(Cl)cccc1S(=O)(=O)N1CCC[C@@]1(C)C(=O)N[C@H]1C2CC3CC1C[C@](O)(C3)C2 | IC50 [12]: 3.1 nM
499 | – | 64 | Cc1c(Cl)cccc1S(=O)(=O)N1CCC[C@]1(C)C(=O)NC1C2CC3CC(C2)CC1C3 (stereo not given in full) | –
– | 18 | – | Cc1c(Cl)cccc1S(=O)(=O)N1CCC[C@]1(C)C(=O)NC12CC3CC(CC(O)(C3)C1)C2 | inhibition [13]: 35%
– | 15 | – | CO[C@H]1CC[C@H](NC(=O)[C@@]2(C)CCCN2S(=O)(=O)c2cccc(Cl)c2C)CC1 | inhibition [13]: 37%
430 | – | – | Cc1c(Cl)cccc1S(=O)(=O)N1CCC[C@@H]1C(=O)NC1CCCCC1 | –
– | 33 | – | COC(=O)[C@H]1CC2COCC(C1)[C@H]2NC(=O)[C@@]1(C)CCCN1S(=O)(=O)c1cccc(Cl)c1C | –
